Target: T1, Follicle Stimulating Hormone Receptor (FSHR) (Homo sapiens, UniProt P23945)
T1 construct: HA (N); expressed in transfected cells; host or cells: CHO-K1, transient transfection, pHM6 vector (CMV promoter)
T1 sequence (P23945 18-695): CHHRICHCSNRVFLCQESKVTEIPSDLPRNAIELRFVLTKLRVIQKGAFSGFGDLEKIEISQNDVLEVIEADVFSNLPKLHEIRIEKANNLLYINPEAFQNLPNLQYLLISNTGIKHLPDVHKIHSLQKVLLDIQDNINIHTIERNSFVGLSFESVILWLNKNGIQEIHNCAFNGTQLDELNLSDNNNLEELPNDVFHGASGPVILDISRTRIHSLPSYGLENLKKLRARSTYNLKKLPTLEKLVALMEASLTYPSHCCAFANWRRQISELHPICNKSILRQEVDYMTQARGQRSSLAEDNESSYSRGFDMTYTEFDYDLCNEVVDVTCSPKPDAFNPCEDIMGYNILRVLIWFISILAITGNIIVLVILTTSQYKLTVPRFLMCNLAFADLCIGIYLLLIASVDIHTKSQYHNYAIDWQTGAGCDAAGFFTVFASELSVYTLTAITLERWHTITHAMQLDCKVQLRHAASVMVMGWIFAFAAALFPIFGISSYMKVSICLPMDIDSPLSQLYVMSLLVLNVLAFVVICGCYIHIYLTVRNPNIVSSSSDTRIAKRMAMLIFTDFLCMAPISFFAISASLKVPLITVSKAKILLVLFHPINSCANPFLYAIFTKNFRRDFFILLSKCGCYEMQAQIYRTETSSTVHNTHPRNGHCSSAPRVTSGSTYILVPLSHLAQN
Assay: HTRF cAMP agonist assay, FSHR, transiently transfected CHO-K1 cells
Type: cell-based
Details: CHO-K1 cells transiently expressing human FSHR, read-out: IC50 FSHR LANCE CAMP
Description: Example 17. HTRF cAMP Agonist Assay Protocol (for FSHR, TSHR, LHCGR)
Mammalian expression vectors designed to express either Follicle Stimulating Hormone Receptor (FSHR), Thyroid Stimulating Hormone Receptor (TSHR), or Luteinizing Hormone/Choriogonadotropin Receptor (LHCGR), were generated with an HA-tag on the N-terminus. All constructs were expressed under a human cytomegalovirus (CMV) immediate early enhancer and promoter using the pHM6 expression vector. The protein coding region was confirmed by sequence analysis to be in-frame and of the expected sequence, matching the following accession numbers: FSHR NM_000145, TSHR NM_000369, and LHCGR NM_000233.
HTRF cAMP assays were performed using Chinese Hamster Ovary (CHO-K1) cell lines transiently expressing human FSH, TSH, and LHCG receptors. 48 hours before the assay, cells were washed with PBS and then dissociated from tissue culture flasks with 0.25% trypsin. Dissociated cells were quenched in full media (F-12K Medium Corning REF #10-025-CV, 10% Avantor Seradigm FB Essence Cat #10803-034, 1% Penicillin/Streptomycin Cytiva HyClone Cat #SV30010) and then collected by centrifugation at 290×g for 5 min. Cells were resuspended in full media and dispensed into 150 mm cell culture dishes (Nest Scientific Cat #715001), at 2.3×10^6 cells/flask. 7 hours later, cells were transfected using Lipofectamine transfection reagent (Invitrogen Cat #18324020). Briefly, 60 μL of lipofectamine was dispensed into 2 mL of Opti-MEM (Gibco Cat #31985070) and incubated for 5 minutes at room temperature. Then, the mixture was added onto […] of DNA and incubated for another 20 minutes at room temperature. Cells were washed with warm (37° C.) PBS. 17.5 mL of Opti-MEM was dispensed onto the cells, followed by addition of the Opti-MEM/lipofectamine/DNA mixture. Cells were incubated overnight in a 37° C., 5% CO2 cell incubator. 17-19 hours later, Opti-MEM was aspirated off the cells and replaced with full media. Cells were incubated for another 24 hours in a 37° C., 5% CO2 cell incubator.
On the day of the assay, cells were washed with PBS and then dissociated from tissue culture flasks with 0.25% trypsin. Dissociated cells were quenched in full media and then collected by centrifugation at 290×g for 5 min. Cells were resuspended in PBS^+/+ (Corning REF #20-030-CV) to a concentration of 2×10^5 cells/mL. 10 μL/well of cells (2,000 cells/well) were dispensed into 384-well Corning plates (REF #3825), in triplicate. Cells were incubated at room temperature for 2 hours.
Example FSHR Modulator compounds were diluted in assay buffer (PBS^+/+, 0.05% BSA Sigma-Aldrich A3059, 500 μM IBMX Sigma-Aldrich 15879) to 3.5× the final assay concentration. 4 μL of test agonist was added to the cells and incubated for 1 hour at room temperature. 10 μL of cAMP detection reagents (LANCE Ultra cAMP Detection Kit PerkinElmer TRF0264) were dispensed onto the cells and plates were incubated for 2 hours at room temperature (cAMP detection reagents were made according to the PerkinElmer kit protocol). Plates were read on an Envision plate reader following PerkinElmer guidelines.
Raw data for all assays was transmitted directly from plate readers into a database for processing. All assay plates contained both positive and negative control wells to allow for data normalization and scaling. In agonist assays, negative control wells contained assay buffer and positive control wells contained […] positive control (10 nM Follicle Stimulating Hormone Sigma-Aldrich F4021, 50 nM Thyroid Stimulating Hormone Sigma-Aldrich 869006, 50 nM Luteinizing Hormone MyBioSource MBS5308806, for their respective receptors). All control wells contained DMSO at a final assay concentration that matched the test compound wells. […]
Percent control data were analyzed by non-linear regression with a sigmoidal dose response algorithm in the database to yield potency and efficacy data.

Compound | IC50 [nM]
COc1cc2c(cc1-c1cncc(C(N)=O)c1)-c1c(c(C(=O)N(C)C(C)(C)C)nn1-c1cc(Cl)cc(Cl)c1)[S+]([O-])C2 (single isomer, unassigned) [Compound 3-06] | 43.4
COc1cc2c(cc1-c1cncc(C(N)=O)c1)-c1c(c(C(=O)N3CCN(C(=O)OC(C)(C)C)C[C@@H]3C(C)C)nn1-c1cc(Cl)cc(Cl)c1)CC2 (stereo in doubt) [Compound 8-25A] | 754
COc1cc2c(cc1-c1cncc(C(N)=O)c1)-c1c(c(C(=O)N3CCOCC3(C)C)nn1-c1cc(Cl)cc(Cl)c1)OC2 [Compound 2-01, 5-[1-(3,5-dichlorophenyl)-3-(3,3-dimethylmorpholine-4-carbonyl)-7-methoxy-5H-isochromeno[4,3-c]pyrazol-8-yl]pyridine-3-carboxamide] | 3.44
COc1cc2c(cc1-c1cncc(C(N)=O)c1)-c1c(c(C(=O)N(C)C(C)(C)C)nn1-c1cc(Cl)cc(Cl)c1)OC2 [Compound 2-02] | 1.98
COc1cc2c(cc1-c1cncc(C(N)=O)c1)-c1c(c(C(=O)N3CCOCC3(C)C)nn1-c1ccsc1)OC2 [Compound 2-03] | 22
COc1cc2c(cc1-c1cncc(C(N)=O)c1)-c1c(c(C(=O)N(C)C(C)(C)C)nn1-c1ccsc1)OC2 [Compound 2-04] | 7.92
COc1cc2c(cc1-c1ccn(C)n1)-c1c(c(C(=O)N3CCOCC3(C)C)nn1-c1cc(Cl)cc(Cl)c1)OC2 [Compound 2-05, [1-(3,5-dichlorophenyl)-7-methoxy-8-(1-methylpyrazol-3-yl)-5H-isochromeno[4,3-c]pyrazol-3-yl]-(3,3-dimethylmorpholin-4-yl)methanone] | 638
COc1cc2c(cc1-c1ccn(C)n1)-c1c(c(C(=O)N(C)C(C)(C)C)nn1-c1cc(Cl)cc(Cl)c1)OC2 [Compound 2-06] | 195
COc1cc2c(cc1-c1ccn(C)n1)-c1c(c(C(=O)N3CCOCC3(C)C)nn1-c1ccsc1)OC2 [Compound 2-07] | 2410
COc1cc2c(cc1-c1ccn(C)n1)-c1c(c(C(=O)N(C)C(C)(C)C)nn1-c1ccsc1)OC2 [Compound 2-08] | 475
COc1cc2c(cc1-c1cncc(C(N)=O)c1)-c1c(c(C(=O)N3CCOCC3(C)C)nn1-c1cc(Cl)cc(Cl)c1)SC2 [Compound 3-01, 5-[1-(3,5-dichlorophenyl)-3-(3,3-dimethylmorpholine-4-carbonyl)-7-methoxy-5H-isothiochromeno[4,3-c]pyrazol-8-yl]pyridine-3-carboxamide] | 6.72
COc1cc2c(cc1-c1cncc(C(N)=O)c1)-c1c(c(C(=O)N(C)C(C)(C)C)nn1-c1cc(Cl)cc(Cl)c1)SC2 [Compound 3-02, N-tert-butyl-8-(5-carbamoyl-3-pyridyl)-1-(3,5-dichlorophenyl)-7-methoxy-N-methyl-5H-isothiochromeno[4,3-c]pyrazole-3-carboxamide] | 3.92
COc1cc2c(cc1-c1ccn(C)n1)-c1c(c(C(=O)N3CCOCC3(C)C)nn1-c1cc(Cl)cc(Cl)c1)SC2 [Compound 3-03, (1-(3,5-dichlorophenyl)-7-methoxy-8-(1-methyl-1H-pyrazol-3-yl)-1,5-dihydroisothiochromeno[4,3-c]pyrazol-3-yl)(3,3-dimethylmorpholino)methanone] | 325
COc1cc2c(cc1-c1ccn(C)n1)-c1c(c(C(=O)N(C)C(C)(C)C)nn1-c1cc(Cl)cc(Cl)c1)SC2 [Compound 3-04, N-tert-butyl-1-(3,5-dichlorophenyl)-7-methoxy-N-methyl-8-(1-methylpyrazol-3-yl)-5H-isothiochromeno[4,3-c]pyrazole-3-carboxamide] | 223
COc1cc2c(cc1-c1cncc(C(N)=O)c1)-c1c(c(C(=O)N3CCOCC3(C)C)nn1-c1cc(Cl)cc(Cl)c1)[S+]([O-])C2 (stereo not shown) [Compound 3-05] | 55.7
COc1cc2c(cc1-c1cncc(C(N)=O)c1)-c1c(c(C(=O)N(C)C(C)(C)C)nn1-c1cc(Cl)cc(Cl)c1)[S+]([O-])C2 (stereo not shown) [Compound 3-07, N-tert-butyl-8-(5-carbamoyl-3-pyridyl)-1-(3,5-dichlorophenyl)-7-methoxy-N-methyl-4-oxo-5H-isothiochromeno[4,3-c]pyrazole-3-carboxamide] | 4560
COc1cc2oc3c(C(=O)N4CCOCC4(C)C)nn(-c4ccsc4)c3c2cc1-c1cncc(C#N)c1 [Compound 4-03, 5-[3-(3,3-dimethylmorpholine-4-carbonyl)-6-methoxy-1-(3-thienyl)benzofuro[3,2-c]pyrazol-7-yl]pyridine-3-carbonitrile] | 579
COc1cc2oc3c(C(=O)N4CCOCC4(C)C)n(-c4ccsc4)nc3c2cc1-c1cncc(C(N)=O)c1 [Compound 4-03A] | 1860
COc1cc2oc3c(C(=O)N4CCOCC4(C)C)nn(-c4ccsc4)c3c2cc1-c1cncc(C#N)c1 [Compound 4-03B] | 2360
COc1cc2oc3c(C(=O)N(C)C(C)(C)C)n(-c4ccsc4)nc3c2cc1-c1cncc(C(N)=O)c1 [Compound 4-04A] | 1360
COc1cc2oc3c(C(=O)N(C)C(C)(C)C)nn(-c4ccsc4)c3c2cc1-c1cncc(C(N)=O)c1 [Compound 4-04] | 586
COc1cc2oc3c(C(=O)N4CCOCC4(C)C)nn(-c4ccsc4)c3c2cc1-c1ccn(C)n1 [Compound 4-07, (3,3-dimethylmorpholin-4-yl)-[6-methoxy-7-(1-methylpyrazol-3-yl)-1-(3-thienyl)benzofuro[3,2-c]pyrazol-3-yl]methanone] | 2810
COc1cc2c(cc1-c1cncc(C(N)=O)c1)-c1c(c(C(=O)N3CCOCC3(C)C)nn1-c1cc(Cl)cc(Cl)c1)C2 [Compound 5-01, 5-[1-(3,5-dichlorophenyl)-3-(3,3-dimethylmorpholine-4-carbonyl)-6-methoxy-4H-indeno[1,2-c]pyrazol-7-yl]pyridine-3-carboxamide] | 14.8
COc1cc2c(cc1-c1cncc(C(N)=O)c1)-c1c(c(C(=O)N(C)C(C)(C)C)nn1-c1cc(Cl)cc(Cl)c1)C2 [Compound 5-02, N-tert-butyl-7-(5-carbamoyl-3-pyridyl)-1-(3,5-dichlorophenyl)-6-methoxy-N-methyl-4H-indeno[1,2-c]pyrazole-3-carboxamide] | 197
COc1cc2c(cc1-c1cncc(C(N)=O)c1)-c1c(c(C(=O)N3CCOCC3(C)C)nn1-c1ccsc1)C2 [Compound 5-03, 5-[3-(3,3-dimethylmorpholine-4-carbonyl)-6-methoxy-1-(3-thienyl)-4H-indeno[1,2-c]pyrazol-7-yl]pyridine-3-carboxamide] | 4.64

Source: US20260008783A1, “MODULATORS OF FSHR AND USES THEREOF” (Celmatix Inc., priority 2022, published 2026)
